Laboratory results taken from patent US8013153B2, “Substituted pyrimidine kinase inhibitors” (Janssen Pharmaceutica, N.V., priority 2006, dated 2011).
“And” between values parts separate entries of the source, which are not always exact repeats. Identical values can stand only once. “Also recorded” adds a separate entry of the source.

Assays:
B-Raf = B-Raf (Homo sapiens, UniProt P15056); assay: RAF Kinase Screening Assay (B-Raf); conditions: Compound 50 tested at 30 μM
V600E Raf mutant = V600E Raf mutant (Homo sapiens, UniProt P15056, V600E); assay: RAF Kinase Screening Assay (V600E Raf mutant); conditions: Compound 50 tested at 30 μM
V600E Raf mutant, sequence (P15056 whole entry V600E): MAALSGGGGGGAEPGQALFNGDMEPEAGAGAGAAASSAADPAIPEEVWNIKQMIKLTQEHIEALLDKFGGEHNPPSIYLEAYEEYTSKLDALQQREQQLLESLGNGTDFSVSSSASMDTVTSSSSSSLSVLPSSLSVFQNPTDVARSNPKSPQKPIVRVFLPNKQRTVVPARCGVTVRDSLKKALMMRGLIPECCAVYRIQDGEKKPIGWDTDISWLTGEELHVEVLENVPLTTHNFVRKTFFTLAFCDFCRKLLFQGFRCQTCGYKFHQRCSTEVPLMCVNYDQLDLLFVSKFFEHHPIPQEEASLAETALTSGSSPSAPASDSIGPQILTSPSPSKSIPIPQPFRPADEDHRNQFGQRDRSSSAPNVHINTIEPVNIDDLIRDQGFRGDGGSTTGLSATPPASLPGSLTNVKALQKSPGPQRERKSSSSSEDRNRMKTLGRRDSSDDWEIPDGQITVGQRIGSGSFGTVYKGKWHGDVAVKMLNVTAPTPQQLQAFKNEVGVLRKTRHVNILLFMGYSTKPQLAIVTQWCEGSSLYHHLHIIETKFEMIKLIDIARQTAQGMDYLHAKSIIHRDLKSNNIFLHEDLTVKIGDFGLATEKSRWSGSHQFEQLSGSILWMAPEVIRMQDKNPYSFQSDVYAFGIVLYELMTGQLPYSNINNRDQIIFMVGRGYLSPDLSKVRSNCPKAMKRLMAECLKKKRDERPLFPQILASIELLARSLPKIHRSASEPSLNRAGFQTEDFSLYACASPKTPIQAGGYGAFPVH

C-Raf = C-Raf (Homo sapiens, UniProt P04049); assay: RAF Kinase Screening Assay (C-Raf); conditions: Compound 50 tested at 30 μM
C-Raf, sequence (P04049 whole entry, species assumed): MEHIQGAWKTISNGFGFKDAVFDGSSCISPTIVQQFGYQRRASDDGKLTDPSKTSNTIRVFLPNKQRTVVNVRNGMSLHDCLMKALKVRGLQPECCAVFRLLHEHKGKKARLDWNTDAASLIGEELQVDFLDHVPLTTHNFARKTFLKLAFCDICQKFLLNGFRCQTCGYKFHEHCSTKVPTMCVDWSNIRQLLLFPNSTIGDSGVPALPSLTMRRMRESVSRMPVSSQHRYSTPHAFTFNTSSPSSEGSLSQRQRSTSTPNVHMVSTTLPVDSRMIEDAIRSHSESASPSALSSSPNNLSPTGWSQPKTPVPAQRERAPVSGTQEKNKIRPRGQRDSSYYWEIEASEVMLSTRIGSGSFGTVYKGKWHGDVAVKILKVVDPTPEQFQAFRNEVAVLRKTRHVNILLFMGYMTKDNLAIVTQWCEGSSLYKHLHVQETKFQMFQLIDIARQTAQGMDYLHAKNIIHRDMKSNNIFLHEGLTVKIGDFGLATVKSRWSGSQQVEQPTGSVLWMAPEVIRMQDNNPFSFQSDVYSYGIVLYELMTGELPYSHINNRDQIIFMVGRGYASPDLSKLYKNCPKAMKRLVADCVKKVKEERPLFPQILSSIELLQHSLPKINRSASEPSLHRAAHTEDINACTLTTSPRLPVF

[1] = tested on: VEGF-induced angiogenesis; assay: Mouse Corneal Micropocket Assay; assay type: in vivo, C57BL/6J mice
Source text: This method has been described in detail (see Kenyon B, Voest E E, Chen C C, Flynn E, Folkman J and D'Amato R J, A model of angiogenesis in the mouse cornea, Invest. Opthalmol. Vis. Sci., 1996, 37:1625-1632; and, LaMontagne K, Littlewood-E A, Schnell C, O'Reilly T, Wyder L, Sanchez T, Probst B, Butler J, Wood A, Liau G, Billy E, Theuer A, Hla T and Wood J, Antagonism of sphingosine-1-phosphate receptors by FTY720 inhibits angiogenesis and tumor vascularization, Cancer Res., 2006, 66:221-31) and is an in vivo functional assay that provides an important link between biochemical and cellular inhibition (i.e., VEGFR-2 autophosphorylation and VEGF-dependent migration) and functional biological end points (i.e., VEGF-induced angiogenesis in vivo).
Pellets containing the slow-release polymer Hydron® and sucralfate with 180 ng rHuVEGF165 were implanted into the cornea of female C57BL/6J mice. Daily oral treatment with either Compound 50 (10 mg/kg or 100 mg/kg) or vehicle (0.5% methylcellulose) was started 24 hours later. […] After sacrifice on day 6, the vascular response was quantified using a linear reticule through the slit lamp. Inhibition was determined by the formula: Inhibition=[(0.2)(π)(new blood vessel length)(clock hours of neovessels)]
The circumferential zone was measured as clock hours with a 360° reticule (where 30° of arc equals 1 clock hour). […]

[2] = tested on: A431 human epidermoid carcinoma; assay: In vivo inhibition of tumor growth, A431 model; design: species or system athymic nude mice; conditions: 10 mg/kg daily, oral
Source text: Female Nu/Nu˜nuBR athymic nude mice (obtained from Charles River Laboratories), at the age of 5-6 weeks were feed water and an irradiated standard rodent diet ad libitum, and housed in specific pathogen-free conditions, according to the guidelines of the American Association for Accreditation of Lab Animal Care (AALAC).
Mice were implanted subcutaneously in the right hind flank with the various tumor cell suspensions in HBSS containing 10% FBS: A431 human epidermoid carcinoma (4×10^6 cells/mouse), HCT116 human colorectal carcinoma (4×10^6 cells/mouse) and A375 human skin melanoma (2×10^6 cells/mouse). […]
The tumors were allowed to establish growth for 10 to 14 days. Tumor size was measured every 3 days. […]
Tumor measurements and body weights were recorded individually (2×/week) during the treatment period of the experiment. Tumors were measured using a digital caliper. Data was recorded/calculated using Study Director software (StudyLog Systems, Inc.) and graphs were created in GraphPad Prizm.
The volume of each tumor in an animal was calculated according to the formula: (D×d^2)/2, where the diameters were determined from two orthogonal measurements on each tumor. The mean tumor volume was determined by averaging all tumor volumes in each group. The mean body weight was determined by averaging all body weights in each group. […]

[3] = tested on: Human Umbilical Vein Endothelial Cells (HUVEC); assay: VEGF Mediated Cell Migration Assay; assay type: cell-based; conditions: VEGF 10 ng/mL, VEGF control = 100%

B-Raf, sequence (P15056 whole entry, species assumed): as the sequence (P15056 whole entry V600E) above, with E600V counted along it

For CCNC(=O)Nc1ccc(Oc2ncnc(N)c2/C=N/OC)cc1Cl [Cpd 50, 1-{4-[6-amino-5-(methoxyimino-methyl)-pyrimidin-4-yloxy]-2-chloro-phenyl}-3-ethyl-urea], the “activity against B-Raf” value (B-Raf) was “no activity; also recorded: not active”, the “activity against the V600E Raf mutant” value (V600E Raf mutant) was “no activity; also recorded: not active” and the “activity against C-Raf” value (C-Raf) was “no activity; also recorded: not active”. For the same compound, the “% Inhibition of blood vessel growth compared to the vehicle group” value ([1]; 10 mg/Kg daily oral) was 15% and 15 ± 2%, the “% Inhibition of blood vessel growth compared to the vehicle group” value ([1]; 100 mg/Kg daily oral) was 83% and 83 ± 6% and the “inhibition of tumor growth” value [2] was < 50%. For the same compound, the “% Stimulation of cell migration” value ([3]; 50 nM) was 82%, the “% Stimulation of cell migration” value ([3]; 100 nM) was 60% and the “% Stimulation of cell migration” value ([3]; 500 nM) was 59%. The “% Stimulation of cell migration” value ([3]; 1 μM) was 34.5%.
